Source: publication PMC5823691 (Journal of medicinal chemistry, 2017)
Values after ≈ are worked out from the molar mass of the structure shown.

Legend:
[1] = target: human CD40–CD40L interaction (Homo sapiens, UniProt P29965)
[2] = tested on: THP-1 human myeloid cells; test: MTT cytotoxicity assay; type: cell-based; conditions: THP-1 cells, 48 h; concentrations of up to 100 and 200 µM; Figure S3
[3] = tested on: THP-1 human myeloid cells; conditions: THP-1 cells, 0.5 µg/mL MegaCD40L, 48 h; Figure S2
[4] = tested on: Mac-1 (αMβ2)–CD40L interaction; test: cell-free Mac-1–CD40L binding inhibition assay; set-up: species or system human; conditions: compared with CD40–CD40L activity; Figure S1
[5] = tested on: Salmonella typhimurium TA-100; test: Muta-Chromplate mutagenicity assay; conditions: S. typhimurium TA-100; concentrations tested of up to 500 µM; Figure S4
water solubility = type: physicochemical; conditions: distilled water, Estimated water solubility, saturated solution
[6] = tested on: Balb/c skin allografts in C57BL/6 mice; conditions: two week treatment, 30 mg/kg daily s.c. in 20% HPβCD

human CD40–CD40L interaction, sequence (P29965 113-261 limits assumed): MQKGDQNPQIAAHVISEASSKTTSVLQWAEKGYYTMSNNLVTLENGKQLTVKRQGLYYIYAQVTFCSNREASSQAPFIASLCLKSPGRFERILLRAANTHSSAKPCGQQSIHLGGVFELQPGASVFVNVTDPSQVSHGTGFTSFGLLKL

Row | Compound | effect on CD40L-induced MHC-II upregulation [3] | increase of inhibitory potency in Mac-1–CD40L assay [4] | genotoxic potential (Ames test) [5] | also measured
1 | CSCC[C@H](NC(=O)[C@@H](NC(=O)[C@H](Cc1ccc(O)cc1)NC(=O)[C@H](Cc1ccc(O)cc1)NC(=O)CNC(=O)[C@H](CCCCN)NC(=O)[C@H](CCCCN)NC(=O)[C@H](C)NC(=O)[C@H](Cc1c[nH]c2ccccc12)NC(=O)[C@H](CCC(N)=O)NC(=O)[C@H](CC(C)C)NC(=O)[C@@H](N)C(C)C)[C@@H](C)O)C(=O)N[C@@H](CCCCN)C(=O)N[C@@H](CO)C(=O)N[C@@H](CC(N)=O)C(=O)O [mouse KGYY15] |  |  |  | CD40 IC50 ([1]; cell-free, soluble CD40L binding to plate-coated CD40, Hill slope 1 fit): no inhibitory activity
2 | O=C(Nc1ccc(-c2ccc(C(=O)Nc3ccc(C(=O)O)c4ccccc34)cc2)cc1)c1ccc([N+](=O)[O-])cc1 [Compound 11, 4-(4’-(4-Nitrobenzamido)biphenyl-4-ylcarboxamido)-1-naphthoic acid] | concentration-dependently inhibited |  |  | cytotoxicity (MTT, viability) [2]: significant effect on viability at 100 µM
3 | Nc1ccc(C(=O)Nc2ccc(-c3ccc(C(=O)Nc4cccc5cccc(S(=O)(=O)O)c45)cc3)cc2)cc1 [Compound 8, 8-(4’-(4-Aminobenzamido)biphenyl-4-ylcarboxamido)naphthalene-1-sulfonic acid] |  | about 10 fold |  | 
4 | O=C(Nc1ccc2c(O)c(/N=N/c3ccc(N=Nc4ccc(S(=O)(=O)O)cc4)cc3S(=O)(=O)O)c(S(=O)(=O)O)cc2c1)Nc1ccc2c(O)c(/N=N/c3ccc(N=Nc4ccc(S(=O)(=O)O)cc4)cc3S(=O)(=O)O)c(S(=O)(=O)O)cc2c1 (stereo in doubt) [Compound 1, direct red 80, reference compound] |  | about 10 fold |  | ligand efficiency (LE) ([1]; binding free energy per non-hydrogen atom): 0.4 kJ/atom
5 | O=C(Nc1ccc(-c2ccc(C(=O)Nc3cccc4cccc(S(=O)(=O)O)c34)cc2)cc1)c1ccc([N+](=O)[O-])cc1 [Compound 6, 8-(4’-(4-Nitrobenzamido)biphenyl-4-ylcarboxamido)naphthalene-1-sulfonic acid] | concentration-dependently inhibited |  | neither of these compounds was found to have genotoxic potential | 
6 | COC(=O)c1ccc(C(=O)Nc2ccc(-c3ccc(C(=O)Nc4cccc5cccc(S(=O)(=O)O)c45)cc3)cc2)cc1 [Compound 10, 8-(4’-(4-(Methoxycarbonyl)benzamido)biphenyl-4-ylcarboxamido)naphthalene-1-sulfonic acid] | concentration-dependently inhibited |  | neither of these compounds was found to have genotoxic potential | solubility (water solubility): 164 µg/mL (≈ 282 µM); toxicity during chronic treatment [6]: no signs of toxicity
